Experiments:
Type in all cases: in vivo, rat
fat ZDF rats = experiment: Histological examination of kidneys of ZDF rats after 6 months treatment; design: Armanni-Ebstein cells MEAN SEVERITY / Glomerulosclerosis MEAN SEVERITY / Atrophy: renal tubule MEAN SEVERITY / Casts: renal tubule MEAN SEVERITY: scale not given here
Procedure: The protein and creatinine excretion in the urine of male Zucker Diabetic Fatty (ZDF) Rats (ZDF Gmi fa/fa) and heterozygous control animals (ZDF Gmi −/+) of 10, 17, 27 and 37 weeks age was determined. In further groups, diabetic rats were chronically given either ramipril (1 mg/kg/day, in drinking water) or a compound of formula (II-B) (30 mg/kg/day, in food) over a period from 10 to 37 weeks. The animals were sacrificied after 37 weeks, and their kidneys examined histologically.
In the attached tables a summary of the findings on the kidneys after a treatment period of 6 months is listed.

Goto-Kakizaki (GK) rats = experiment: Albumin and creatinine excretion in Goto-Kakizaki (GK) rats; settings: start at age 6 months, mean
Procedure: The albumin and creatinine excretion in Goto-Kakizaki (GK) rats was determined. GK rats are a model for Type II diabetes. One group was left untreated, one was treated with the ACE/NEP inhibitor of formula (II-B) and one group was treated with the ACE inhibitor ramipril. [table]

Wistar rats = experiment: Albumin and creatinine excretion in Wistar rats (non-diabetic nephropathy); settings: for Albumin/Creatinine: Wistar rats, start at age 6 months, mean
Procedure: The albumin and creatinine excretion in Wistar rats was determined. One group was left untreated, one was treated with the ACE/NEP inhibitor of formula (II-B) and one group was treated with the ACE inhibitor ramipril. Wistar rats are non-diabetic and develop proteinuria and structural kidney damage during adult life. Wistar rats are therefore a model for non-diabetic nephropathy. [table]

ZDF rats = experiment: RP-HPLC analysis of CML in kidney and heart of ZDF rats; settings: for mean CML conc.: RP-HPLC, ZDF Placebo = 100
Procedure: Kidney AGE values were determined by Dot blot analysis (Stracke et al., Exp. Clin. Endocrinol. Diabets 2002, 109, 330-336) and Reversed-phase high performance liquid chromatography or RP-HPLC (Drusch et al., Food Chem. 1999, 65, 547-553).
[…] Two animals of each group were analyzed. Grinding of the kidney and heart was performed in liquid nitrogen using a freezer mill (Freezer 6750, C3 Analysetechnik GmbH). Hydrolysis of the organ samples was performed with 6 M hydrochloric acid (HCl) at 110° C. for 12 hours. Sample treatment with o-phthaldialdehyde (OPA) and RP-HPLC was performed as described in Drusch et al., Food Chem. 1999, 65, 547-553.

[1] = kidneys, male fat ZDF rats, terminal sacrifice
[2] = kidneys, male fat ZDF rats, terminal sacrifice, examined: D1 9, D4 8
[3] = kidneys, male fat ZDF rats, terminal sacrifice, examined: D1 9, D4 8, listed as compound (II-B)

CC(=O)S[C@H](C(=O)N[C@H]1Cc2ccccc2[C@H]2CCC[C@@H](C(=O)O)N2C1=O)C(C)C [cpd. (II-B)]
Armanni-Ebstein cells GRADE 2: number of animals (fat ZDF rats; [1]): 5
Armanni-Ebstein cells GRADE 3: number of animals (fat ZDF rats; [1]): 3
Armanni-Ebstein cells MEAN SEVERITY (fat ZDF rats; [1]): 2.4
Atrophy: renal tubule GRADE 1: number of animals (fat ZDF rats; [1]): 1
Atrophy: renal tubule GRADE 3: number of animals (fat ZDF rats; [1]): 1
Atrophy: renal tubule MEAN SEVERITY (fat ZDF rats; [1]): 2.0
Casts: renal tubule GRADE 1: number of animals (fat ZDF rats; [1]): 2
Casts: renal tubule GRADE 2: number of animals (fat ZDF rats; [1]): 1
Casts: renal tubule MEAN SEVERITY (fat ZDF rats; [1]): 1.3
Glomerulosclerosis GRADE 1: number of animals (fat ZDF rats; [1]): 1
Glomerulosclerosis GRADE 3: number of animals (fat ZDF rats; [1]): 1
Glomerulosclerosis MEAN SEVERITY (fat ZDF rats; [1]): 1.0
Armanni-Ebstein cells: number of animals with finding (total affected) (fat ZDF rats; [2]): 8
Atrophy: renal tubule: number of animals with finding (total affected) (fat ZDF rats; [2]): 2
Casts: renal tubule: number of animals with finding (total affected) (fat ZDF rats; [2]): 3
Glomerulosclerosis: number of animals with finding (total affected) (fat ZDF rats; [2]): 1
Atrophy: renal tubule: number of animals with finding (total affected) (fat ZDF rats; [3]): low incidences
Casts: renal tubule: number of animals with finding (total affected) (fat ZDF rats; [3]): low incidences
Glomerulosclerosis: number of animals with finding (total affected) (fat ZDF rats; [3]): not present
Dilatation: pelvis GRADE 2: number of animals (fat ZDF rats; rat, in vivo): 1
Dilatation: pelvis GRADE 3: number of animals (fat ZDF rats; rat, in vivo): 5
Dilatation: pelvis GRADE 4: number of animals (fat ZDF rats; rat, in vivo): 1
Dilatation: pelvis MEAN SEVERITY (fat ZDF rats; rat, in vivo): 3.0
Albumin/Creatinine (Goto-Kakizaki (GK) rats; 6 weeks treatment): 17.70 mg/mmol
Albumin/Creatinine (Goto-Kakizaki (GK) rats; 12 weeks treatment): 24.28 mg/mmol
Albumin/Creatinine (Goto-Kakizaki (GK) rats; Basal): 103.95 mg/mmol
Albumin/Creatinine (Wistar rats; 6 weeks treatment): 18.07 mg/mmol
Albumin/Creatinine (Wistar rats; 12 weeks treatment): 21.21 mg/mmol
Albumin/Creatinine (Wistar rats; Basal): 130.45 mg/mmol
Nephroprotective effect compared with ramipril as determined by the extent of proteinuria (Wistar rats; non-diabetic model, in words): significantly higher nephroprotective effect than ramipril
mean CML conc. (ZDF rats; hearts of 17-week-old ZDF rats): 26%
mean CML conc. (ZDF rats; kidneys of 17-week-old ZDF rats): 55%
mean CML conc. (ZDF rats; kidneys of 37-week-old ZDF rats): 58%
CML concentration in the heart of 17-week-old ZDF rats (ZDF rats; in words): reduces
CML concentration in the kidneys of 17-week-old ZDF rats (ZDF rats; in words): reduces
CML concentration in the kidneys of 37-week-old ZDF rats (ZDF rats; in words): reduces

Reference: patent publication US6930103B2, “Use of vasopeptidase inhibitors in the treatment of metabolic diseases, nephropathy and advanced glycation end-product associated diseases” (Aventis Pharma Deutschland GmbH, priority 2002, dated 2005)
